Results: patent publication US20240270751A1, “Pyrazolopyridinone Compounds” (BeiGene Ltd., priority 2021, published 2024)

Key:
DGKζ = DGKζ (Homo sapiens (Human), UniProt Q13574); experiment: Biochemical DGK IC50 assay, DGKζ ADP-Glo assay; conditions: 0.5 nM enzyme, 140 μM ATP, 80 μM DAG; read-out: DGKζ ADP-Glo assay IC50
Summary of the method: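 ADP formation measured by ADP-Glo luminescence, with test compounds at final 1.55–10000 nM or 23.3–150000 nM. Enzyme: purified full-length human DGKζ from Sf9 insect cells; substrate: DAG/PS micelles in 25 mM HEPES pH 7.0, 0.5 mM EDTA, octyl glucoside.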

DGKα = DGKα (Homo sapiens (Human), UniProt P23743); experiment: Biochemical DGK IC50 assay, DGKα ADP-Glo assay; conditions: 7.5 nM enzyme, 140 μM ATP, 80 μM DAG
Sequence of DGKα (P23743 whole entry): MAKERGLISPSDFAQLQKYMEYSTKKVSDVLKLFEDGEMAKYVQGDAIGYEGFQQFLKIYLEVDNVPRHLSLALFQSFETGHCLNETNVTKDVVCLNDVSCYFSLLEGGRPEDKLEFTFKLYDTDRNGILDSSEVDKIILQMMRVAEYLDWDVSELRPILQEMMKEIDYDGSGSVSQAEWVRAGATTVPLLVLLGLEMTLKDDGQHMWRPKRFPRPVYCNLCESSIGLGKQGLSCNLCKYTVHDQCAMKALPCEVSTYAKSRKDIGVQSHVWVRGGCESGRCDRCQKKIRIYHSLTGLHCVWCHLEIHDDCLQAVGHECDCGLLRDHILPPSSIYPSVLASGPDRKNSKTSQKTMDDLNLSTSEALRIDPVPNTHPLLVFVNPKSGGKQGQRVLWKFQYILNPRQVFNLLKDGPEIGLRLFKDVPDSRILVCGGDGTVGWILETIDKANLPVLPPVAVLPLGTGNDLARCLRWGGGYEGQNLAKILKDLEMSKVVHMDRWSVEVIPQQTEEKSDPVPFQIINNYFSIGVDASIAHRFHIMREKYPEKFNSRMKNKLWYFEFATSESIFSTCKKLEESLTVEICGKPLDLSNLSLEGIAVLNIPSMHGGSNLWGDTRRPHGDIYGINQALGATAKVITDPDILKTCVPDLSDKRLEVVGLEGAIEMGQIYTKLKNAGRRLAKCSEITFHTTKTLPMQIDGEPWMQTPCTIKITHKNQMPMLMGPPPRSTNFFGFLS
Summary of the method: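 Compounds at final 1.55˜10000 nM or 23.3˜150000 nM were tested against full-length DGKα. Substrate was lipid micelles of DAG and PS resuspended in 25 mM HEPES pH 7.0 with 0.5 mM EDTA and 160 mM octyl β-D-glucopyranoside. ADP formed was detected by ADP-Glo.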

Sequence of DGKζ (Q13574 other isoform, or with tags, fused parts or gaps): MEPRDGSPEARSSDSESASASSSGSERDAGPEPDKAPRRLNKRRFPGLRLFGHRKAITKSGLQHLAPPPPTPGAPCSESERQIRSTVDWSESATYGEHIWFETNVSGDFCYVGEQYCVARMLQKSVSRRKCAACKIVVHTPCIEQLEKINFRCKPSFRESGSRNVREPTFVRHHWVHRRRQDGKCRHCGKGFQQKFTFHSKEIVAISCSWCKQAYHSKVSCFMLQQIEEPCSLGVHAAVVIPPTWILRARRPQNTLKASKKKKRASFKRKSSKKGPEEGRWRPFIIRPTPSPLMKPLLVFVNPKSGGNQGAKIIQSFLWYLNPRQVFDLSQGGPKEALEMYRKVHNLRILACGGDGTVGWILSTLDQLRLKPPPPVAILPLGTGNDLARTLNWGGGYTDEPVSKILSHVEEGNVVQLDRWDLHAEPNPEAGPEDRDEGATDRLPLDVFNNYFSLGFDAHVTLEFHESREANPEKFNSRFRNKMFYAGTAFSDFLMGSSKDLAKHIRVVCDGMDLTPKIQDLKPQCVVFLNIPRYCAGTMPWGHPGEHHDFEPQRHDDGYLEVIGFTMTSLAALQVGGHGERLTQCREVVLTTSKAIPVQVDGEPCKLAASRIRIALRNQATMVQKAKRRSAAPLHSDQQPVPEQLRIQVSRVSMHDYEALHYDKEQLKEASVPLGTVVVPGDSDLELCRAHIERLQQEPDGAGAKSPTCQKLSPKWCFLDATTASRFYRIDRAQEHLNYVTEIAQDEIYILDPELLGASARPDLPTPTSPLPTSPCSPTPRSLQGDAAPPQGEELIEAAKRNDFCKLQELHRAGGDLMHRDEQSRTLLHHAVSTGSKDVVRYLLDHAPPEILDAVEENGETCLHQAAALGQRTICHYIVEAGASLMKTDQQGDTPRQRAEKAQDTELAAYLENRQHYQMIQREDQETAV

| SMILES | IC50 (DGKζ) | IC50 (DGKα) |
| --- | --- | --- |
| COC[C@@H]1CN(c2cc(=O)n(C)c3cn(CC#N)nc23)[C@@H](C)CN1C(C)c1ccc2nccnc2c1 (stereo partly drawn) [Compound A100, 2-(7-((2S,5S)-5-(methoxymethyl)-2-methyl-4-(1-(quinoxalin-6-yl)ethyl)piperazin-1-yl)-4-methyl-5-oxo-4,5-dihydro-2H-pyrazolo[4,3-b]pyridin-2-yl)acetonitrile] | 200 nM | 3780 nM |
| CC(c1ccc2nccnc2c1)N1C[C@H](CO)N(c2cc(=O)n(C)c3cn(CC#N)nc23)C[C@H]1C (stereo partly drawn) [Compound A101, 2-(7-((2R,5R)-2-(hydroxymethyl)-5-methyl-4-(1-(quinoxalin-6-yl)ethyl)piperazin-1-yl)-4-methyl-5-oxo-4,5-dihydro-2H-pyrazolo[4,3-b]pyridin-2-yl)acetonitrile] | 707 nM | > 10000 nM |
| CC(c1ccc2nccnc2c1)N1C[C@H](C)N(c2cc(=O)[nH]c3cn(CC#N)nc23)C[C@H]1C (stereo partly drawn) [Compound A102, 2-(7-((2S,5R)-2,5-dimethyl-4-(1-(quinoxalin-6-yl)ethyl)piperazin-1-yl)-5-oxo-4,5-dihydro-2H-pyrazolo[4,3-b]pyridin-2-yl)acetonitrile] | 288 nM | > 10000 nM |
| CC[C@H]1CN(C(C)c2cccn(C)c2=O)[C@H](CC)CN1c1cc(=O)n(C)c2cn(CC#N)nc12 (stereo partly drawn) [Compound A104] | > 10000 nM | > 10000 nM |
| CC[C@H]1CN(C(C)c2cccnc2OC)[C@H](CC)CN1c1cc(=O)n(C)c2cn(CC#N)nc12 (stereo partly drawn) [Compound A105] | 258 nM | 8920 nM |
| CC[C@H]1CN(C(C)c2ccccc2COC)[C@H](CC)CN1c1cc(=O)n(C)c2cn(CC#N)nc12 (stereo partly drawn) [Compound A107] | 272 nM | > 10000 nM |
| CC[C@H]1CN(C(C)c2cccc(C(N)=O)c2)[C@H](CC)CN1c1cc(=O)n(C)c2cn(CC#N)nc12 (stereo partly drawn) [Compound A108] | > 10000 nM | 3830 nM |
| CC[C@H]1CN(C(C)c2cccc(NC(C)=O)c2)[C@H](CC)CN1c1cc(=O)n(C)c2cn(CC#N)nc12 (stereo partly drawn) [Compound A109] | 7850 nM | 6170 nM |
| CC[C@H]1CN(C(C)c2ccc(F)cc2Br)[C@H](CC)CN1c1cc(=O)n(C)c2cn(CC#N)nc12 (stereo partly drawn) [Compound A111, 2-(7-((2S,5R)-4-(1-(2-bromo-4-fluorophenyl)ethyl)-2,5-diethylpiperazin-1-yl)-4-methyl-5-oxo-4,5-dihydro-2H-pyrazolo[4,3-b]pyridin-2-yl)acetonitrile] | 96 nM | > 10000 nM |
| CC[C@H]1CN(C(C)c2cc(C)ccc2C(F)(F)F)[C@H](CC)CN1c1cc(=O)n(C)c2cn(CC#N)nc12 (stereo partly drawn) [Compound A114] | 6600 nM | > 10000 nM |
| CC[C@H]1CN(C(C)c2ccc(F)cc2Cl)[C@H](CC)CN1c1cc(=O)n(C)c2cn(CC#N)nc12 (stereo partly drawn) [Compound A116] | 146 nM | 5760 nM |
| CC[C@H]1CN(C(C)c2c(C)cccc2C(F)(F)F)[C@H](CC)CN1c1cc(=O)n(C)c2cn(CC#N)nc12 (stereo partly drawn) [Compound A117] | 3870 nM | > 10000 nM |
| CC[C@H]1CN(C(C)c2ccncc2C(F)(F)F)[C@H](CC)CN1c1cc(=O)n(C)c2cn(CC#N)nc12 (stereo partly drawn) [Compound A118] | 185 nM | > 150000 nM |
| CC[C@H]1CN(C(C)c2cccc(CO)c2)[C@H](CC)CN1c1cc(=O)n(C)c2cn(CC#N)nc12 (stereo partly drawn) [Compound A121b] | > 10000 nM | 4160 nM |
| CC[C@H]1CN(C(C)c2ccc(OC(F)(F)F)cc2)[C@H](CC)CN1c1cc(=O)n(C)c2cn(CC#N)nc12 (stereo partly drawn) [Compound A122] | 635 nM | 10.5 nM |

The next lines start with the values.

| IC50 (DGKζ) | IC50 (DGKα) | SMILES |
| --- | --- | --- |
| 1740 nM | 6030 nM | CC[C@H]1CN(C(C)c2ccc3nccnc3c2)[C@H](CC)CN1c1cc(=O)n(CC(F)(F)F)c2cn(CC#N)nc12 (stereo partly drawn) [Compound A123, 2-(7-((2S,5R)-2,5-diethyl-4-(1-(quinoxalin-6-yl)ethyl)piperazin-1-yl)-5-oxo-4-(2,2,2-trifluoroethyl)-4,5-dihydro-2H-pyrazolo[4,3-b]pyridin-2-yl)acetonitrile] |
| > 10000 nM | > 10000 nM | CC[C@H]1CN([C@H](C)c2ccc3nccnc3c2)[C@H](CC)CN1c1cc(=O)n(CC(F)(F)F)c2cn(CC#N)nc12 [Compound A124] |
| > 10000 nM | > 10000 nM | C[C@@H](c1ccc2nccnc2c1)N1CC2CCC1CN2c1cc(=O)n(C)c2cn(CC#N)nc12 (stereo partly drawn) [Compound A125a] |
| 5270 nM | > 10000 nM | C[C@H](c1ccc2nccnc2c1)N1CC2CCC1CN2c1cc(=O)n(C)c2cn(CC#N)nc12 (stereo partly drawn) [Compound A125b] |
| 7.2 nM | 449 nM | CC[C@H]1CN(C(C)c2ccc3c(c2)OCCO3)[C@H](CC)CN1c1cc(=O)n(C)c2cn(CC#N)nc12 (stereo partly drawn) [Compound A126, 2-(7-((2S,5R)-4-(1-(2,3-dihydrobenzo[b][1,4]dioxin-6-yl)ethyl)-2,5-diethylpiperazin-1-yl)-4-methyl-5-oxo-4,5-dihydro-2H-pyrazolo[4,3-b]pyridin-2-yl)acetonitrile] |
| 260 nM | 56 nM | CC[C@H]1CN(C(C)c2ccc(C)cc2)[C@H](CC)CN1c1cc(=O)n(C)c2cn(CC#N)nc12 (stereo partly drawn) [Compound A127, 2-(7-((2S,5R)-2,5-diethyl-4-(1-(p-tolyl)ethyl)piperazin-1-yl)-4-methyl-5-oxo-4,5-dihydro-2H-pyrazolo[4,3-b]pyridin-2-yl)acetonitrile] |
| 112 nM | 31 nM | CC[C@H]1CN(C(C)c2ccc(C(F)F)cc2)[C@H](CC)CN1c1cc(=O)n(C)c2cn(CC#N)nc12 (stereo partly drawn) [Compound A128] |
| 33 nM | 2350 nM | CC[C@H]1CN([C@@H](C)c2ccc3nccnc3c2)[C@H](CC)CN1c1cc(=O)[nH]c2cn(CC#N)nc12 [Compound A129, 2-(7-((2S,5R)-2,5-diethyl-4-((S)-1-(quinoxalin-6-yl)ethyl)piperazin-1-yl)-5-oxo-4,5-dihydro-2H-pyrazolo[4,3-b]pyridin-2-yl)acetonitrile] |
| 9080 nM | 15 nM | CC[C@H]1CN(C(C)c2ncccn2)[C@H](CC)CN1c1cc(=O)n(C)c2cn(CC#N)nc12 (stereo partly drawn) [Compound A130] |
| 8990 nM | 287 nM | CC[C@H]1CN(C(C)c2ccncn2)[C@H](CC)CN1c1cc(=O)n(C)c2cn(CC#N)nc12 (stereo partly drawn) [Compound A131] |
| 9390 nM | > 10000 nM | C[C@@H]1CN(c2c(Cl)c(=O)n(C)c3cn(CC#N)nc23)[C@@H](C)CN1[C@@H](C)c1ccc2nccnc2c1 [Compound A133, 2-(6-chloro-7-((2S,5R)-2,5-dimethyl-4-((S)-1-(quinoxalin-6-yl)ethyl)piperazin-1-yl)-4-methyl-5-oxo-4,5-dihydro-2H-pyrazolo[4,3-b]pyridin-2-yl)acetonitrile] |
| 35 nM | 1940 nM | C[C@@H]1CN(c2c(C#N)c(=O)n(C)c3cn(CC#N)nc23)[C@@H](C)CN1[C@@H](C)c1ccc2nccnc2c1 [Compound A134, 2-(cyanomethyl)-7-((2S,5R)-2,5-dimethyl-4-((S)-1-(quinoxalin-6-yl)ethyl)piperazin-1-yl)-4-methyl-5-oxo-4,5-dihydro-2H-pyrazolo[4,3-b]pyridine-6-carbonitrile] |
